As a reminder, the Kb is the affinity of an antagonist, worked out from how it opposes an agonist. The IC50 is the concentration at which inhibition is half-maximal. What is called Ki is the dissociation constant of the complex between target and ligand, obtained from inhibition or displacement. Read a low Ki as a stronger hold on the target.

The values that follow come from patent US9029414B2, “Triterpenoid compounds and methods of use thereof” (Biotechnology Research Corporation, priority 2008, dated 2015).

One assay deals with hippocampal neurons. In words: Hippocampal neuron survival assay against glutamate excitotoxicity (LDH). The assay is classed as cell-based, Sprague-Dawley rats. To be noted: 30 μM 24 hrs, glutamate 10-200 μM 20 min. Here is the method: Hippocampal neurons/cortical neurons were prepared from embryonic day 18 Sprague-Dawley rats. After the cortices had been removed from the brain, isolated cells were plated onto Poly d-Lysine (PDL) (P0899, Sigma)-coated 48 well plates (150687, NUNC) at a density of 2×10^5 cell per well using Neurobasal Medium (NB) (21103-049, Gibco) with B27 supplement (17504-044, Gibco), penicillin/streptomycin (15140, Gibco) and 1 mM L-glutamine (25030, Gibco). The cell culture was incubated at 37° C. in a humidified atmosphere of 5% CO2 in air. Medium was changed to growth medium (Neurobasal Medium with penicillin/streptomycin and B27 supplement) after 3 hours. Half medium was changed with growth medium every 2-3 days to maintain the cells until day 10 in vitro (DIV 10). Serial dilutions of samples were prepared in growth medium and DMSO was used as vehicle control. For pre-treating assay, half of the medium was removed from wells, and equal amount of diluted samples were replaced. Cells were then incubated for 2 hours at 37° C. in a humidified atmosphere of 5% CO2 in air. […] Afterwards, cells were incubated in growth medium for 18-24 hours and detected with Cytotoxicity Detection Kit (1644793, Roche).
Hippocampal neurons were treated with DA021 and subsequently subjected to varying concentrations of glutamate. […] LDH release into the medium was then measured.

Assay [1] addresses T1, human MC1 receptor (Homo sapiens, UniProt Q01726). The experiment in a line: Cellular receptor functional assay (cAMP), MC1. The class given is cell-based. The protocol: DA001 inhibits ligand binding to MC1 and MC4 receptors. To determine whether the inhibitory effect is due to agonist or antagonist activity, DA001 was evaluated at 6 or 8 concentrations in cellular assays assessing receptor function. Upon ligand binding, the MC1 or MC4 receptor is activated which leads to an increase in intracellular cyclic AMP. […] DA001 alone is unable to induce cAMP increase (blue square dots). […] DA001 was further evaluated with MC2 receptor functional assay. Upon ligand binding, the MC2 receptor is activated which leads to an increase in intracellular cyclic AMP.

For assay [2], the target named is T1, human MC1 receptor. The experiment in a line: Radioligand competition binding assay, MC1. Here is the method: DA001 was evaluated against 109 receptor binding assays and 17 enzyme assays, comprising of selective, central and peripheral therapeutically-relevant targets. Radioligand competition assays were conducted whereby DA001 was tested at one concentration (10 μM) in duplicate. […] It could compete with the radioligand [^125I-NDP-alpha-melanocyte-stimulating hormone (α-MSH)] binding for MC1 and MC4 but not MC3 and MC5 nor the related family, the melanin concentrating hormone receptors (MCH1 and MCH2).
To determine the IC50 for DA001 to inhibit α-MSH binding on MC1 and MC4 receptor, the compound was further characterized by a dose-dependent study. DA001 was evaluated with 8 concentrations on MC1 and MC4 receptor binding assays.
The specific ligand binding to the receptors is defined as the difference between the total binding and the nonspecific binding determined in the presence of an excess of unlabelled ligand. The results are expressed as a percent of control specific binding [(measured specific binding/control specific binding)×100] and as a percent inhibition of control specific binding {100−[(measured specific binding/control specific binding)×100]} obtained in the presence of DA001. The IC50 values (concentration causing a half-maximal inhibition of control specific binding) and Hill coefficients (nH) were determined by non-linear regression analysis of the competition curves generated with mean replicate values using Hill equation curve fitting (Y=D+[(A−D)/(1+(C/C50)nH)], where Y=specific binding, D=minimum specific binding, A=maximum specific binding, C=compound concentration, C50=IC50, and nH=slope factor). This analysis was performed using a software developed at Cerep (Hill software) and validated by comparison with data generated by the commercial software SigmaPlot® 4.0 for Windows® (© 1997 by SPSS Inc.).
A general note: Loss of bound radioactivity is the signal in a displacement assay; it reports binding, not function.

T1 sequence (Q01726 whole entry): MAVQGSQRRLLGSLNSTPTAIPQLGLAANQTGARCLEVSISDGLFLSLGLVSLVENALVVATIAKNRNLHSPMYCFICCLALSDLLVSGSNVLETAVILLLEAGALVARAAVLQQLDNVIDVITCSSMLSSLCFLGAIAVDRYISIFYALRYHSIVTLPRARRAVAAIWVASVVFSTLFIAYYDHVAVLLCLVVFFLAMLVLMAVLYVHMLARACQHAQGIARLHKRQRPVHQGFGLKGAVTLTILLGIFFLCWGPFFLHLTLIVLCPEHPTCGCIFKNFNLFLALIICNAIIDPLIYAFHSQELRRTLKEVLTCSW

As for `C=C(C)[C@@H]1CC[C@]2(/C=N/O)CC[C@]3(C)C(CCC4[C@@]5(C)CCC(=O)[C@@](C)(CO)[C@@H]5CC[C@]43C)C12` (stereo partly drawn) [DA021], the “protection from glutamate-induced excitotoxicity (LDH release)” value in the assay with hippocampal neurons is “protects neurons against differing concentrations of glutamate”.
Consider `C=C(C)[C@@H]1CC[C@]2(C(=O)O)CC[C@]3(C)C(CC[C@@H]4[C@@]5(C)CC[C@H](O[C@@H]6OC[C@H](O)[C@H](O)[C@H]6O[C@@H]6O[C@@H](C)[C@H](O)[C@@H](O)[C@H]6O)[C@@](C)(CO)[C@@H]5CC[C@]43C)[C@@H]12` (stereo partly drawn) [DA001, 3-O-[α-L-rhamnopyranosyl-(1→2)-α-L-arabinopyranosyl]-3,23-dihydroxy-20(29)-lupen-28-oic acid], for which the Kb on human MC1 receptor [1] (antagonist effect at human MC1 receptor) worked out at 5.3 µM. For the same compound, the 50% inhibitory concentration (IC50) on human MC1 receptor [1] (inhibition of cAMP increase by NDP-α-MSH, cells over-expressing MC1, read-out: IC50, antagonist effect) turned out to be 50 µM; at human MC1 receptor [2] (8 concentrations), 10 µM. The Ki on human MC1 receptor [2] was 5.2 µM. This compound also yielded a nH on human MC1 receptor [2] (Hill coefficient) of 0.9.
